The supplement of paper PMC4862054

What was measured:
Conditions in all cases: incubation time: 72 h
[1] = system: HCC1143; test: drug sensitivity score (DSS), CellTiter-Blue viability (DSS (AUC-based score)); higher = stronger viability inhibition; extreme values may be limits of the assay
Method in brief: (§1)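 Breast cancer cell lines in 20 µl suspension were seeded into 384-well plates already holding compound in a 5- or 9-concentration series and incubated for 72 h. CellTiter-Blue reagent (2.5 µl per well) was then added for 2 h at 37 °C, and fluorescence was read at 560/590 nm. Values on each plate were normalised to 0.1 % DMSO and a positive kill control. The drug sensitivity score is the area under the fitted dose-response curve.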

[2] = system: SK-BR-3; test: as above
Method in brief: as §1

[3] = system: MDA-MB-468; test: as above
Method in brief: as §1

[4] = system: Hs578T; test: normalised viability (% of control), CellTiter-Blue; higher = more viable cells (about 100 = DMSO control)
Method in brief: (§2)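 The reported quantity is normalised viability at a single listed concentration of the series. Compound in 5 µl medium was pre-dispensed into 384-well plates and 20 µl of breast cancer cell suspension was added for 72 h. A 2 h, 37 °C CellTiter-Blue step (2.5 µl) preceded fluorescence reading at 560/590 nm, and plates were normalised to vehicle (100) and a positive kill control (0).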

[5] = system: HCC1599; test: as above
Method in brief: as §2

[6] = system: MDA-MB-231; test: as above
Method in brief: as §2

[7] = system: MDA-MB-436; test: as above
Method in brief: as §2

[8] = system: BT-549; test: as above
Method in brief: as §2

[9] = system: HCC1143; test: as above
Method in brief: as §2

[10] = system: CAL-85-1; test: as above
Method in brief: as §2

[11] = system: MDA-MB-453; test: as above
Method in brief: as §2

[12] = system: HCC1937; test: as above
Method in brief: as §2

[13] = system: CAL-120; test: as above
Method in brief: as §2

[14] = system: SK-BR-3; test: as above
Method in brief: as §2

[15] = system: CAL-148; test: as above
Method in brief: as §2

[16] = system: MFM-223; test: as above
Method in brief: as §2

[17] = system: HDQ-P1; test: as above
Method in brief: as §2

[18] = system: CAL-51; test: as above
Method in brief: as §2

[19] = system: MDA-MB-468; test: as above
Method in brief: as §2

[20] = system: DU-4475; test: as above
Method in brief: as §2

[21] = system: BT-474; test: as above
Method in brief: as §2

[22] = system: MDA-MB-231; test: drug sensitivity score (DSS), CellTox Green (DSS (AUC-based score)); higher = stronger drug effect (viability inhibition or cytotoxicity); extreme values may be limits of the assay
Method in brief: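 Breast cancer cell lines, seeded as 20 µl suspension, were incubated 72 h with compound in 384-well plates at 5 concentrations in 10-fold steps over a 10,000-fold range set for each compound. Fluorescence from CellTox Green was read at 485/520 nm before CellTiter-Glo luminescence, which was read after 10 min at room temperature. Every plate was normalised to 0.1 % DMSO and a positive kill control, and the drug sensitivity score was taken from the area under the fitted dose-response curve.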

With `CN(C)CCOc1ccc(/C(=C(/CCCl)c2ccccc2)c2ccccc2)cc1` [Toremifene] the drug sensitivity score [1] was 0, the drug sensitivity score [2] was 0 and the drug sensitivity score [3] was 2.87. The normalised viability ([4]; 10 nM) was 122%, the normalised viability ([4]; 1000 nM) was 109% and the normalised viability ([4]; 10000 nM) was 94.6%. It also gave a normalised viability ([5]; 10 nM) of 127%, a normalised viability ([5]; 1000 nM) of 97.5% and a normalised viability ([5]; 10000 nM) of 89.6%. It also gave a normalised viability ([6]; 10 nM) of 95.8%, a normalised viability ([6]; 1000 nM) of 101% and a normalised viability ([6]; 10000 nM) of 108%. The normalised viability ([7]; 10 nM) was 99%, the normalised viability ([7]; 1000 nM) was 96.3% and the normalised viability ([7]; 10000 nM) was 71.1%. For the same molecule, the normalised viability ([8]; 10 nM) was 106%, the normalised viability ([8]; 1000 nM) was 113% and the normalised viability ([8]; 10000 nM) was 88.1%. The normalised viability ([9]; 10 nM) was 92.5%, the normalised viability ([9]; 1000 nM) was 97.3% and the normalised viability ([9]; 10000 nM) was 102%. The normalised viability ([10]; 3 nM) was 99.2%, the normalised viability ([10]; 30 nM) was 92.9% and the normalised viability ([10]; 100 nM) was 95.8%. It also gave a normalised viability ([11]; 3 nM) of 126%, a normalised viability ([11]; 30 nM) of 91.4% and a normalised viability ([11]; 100 nM) of 112%. It also gave a normalised viability ([12]; 10 nM) of 129%, a normalised viability ([12]; 1000 nM) of 93.1% and a normalised viability ([12]; 10000 nM) of 114%. For the same molecule, the normalised viability ([13]; 10 nM) was 85.2%, the normalised viability ([13]; 1000 nM) was 96.1% and the normalised viability ([13]; 10000 nM) was 79.1%. The normalised viability ([14]; 10 nM) was 113%, the normalised viability ([14]; 1000 nM) was 107% and the normalised viability ([14]; 10000 nM) was 91.4%. For the same molecule, the normalised viability ([15]; 3 nM) was 94%, the normalised viability ([15]; 30 nM) was 97.6% and the normalised viability ([15]; 100 nM) was 108%. The normalised viability ([16]; 10 nM) was 98.1%, the normalised viability ([16]; 1000 nM) was 96.1% and the normalised viability ([16]; 10000 nM) was 71.8%. It also gave a normalised viability ([17]; 3 nM) of 108%, a normalised viability ([17]; 30 nM) of 109% and a normalised viability ([17]; 100 nM) of 113%. The normalised viability ([18]; 3 nM) was 107%, the normalised viability ([18]; 30 nM) was 98.4% and the normalised viability ([18]; 100 nM) was 110%. The normalised viability ([19]; 10 nM) was 104%, the normalised viability ([19]; 1000 nM) was 109% and the normalised viability ([19]; 10000 nM) was 17.9%. For the same molecule, the normalised viability ([20]; 3 nM) was 110%, the normalised viability ([20]; 30 nM) was 98.6% and the normalised viability ([20]; 100 nM) was 99.4%. The normalised viability ([21]; 10 nM) was 132%, the normalised viability ([21]; 1000 nM) was 119% and the normalised viability ([21]; 10000 nM) was 92.4%.
Work on `COc1cc2c(NC3CCN(C(C)C)CC3)nc(N3CCC(F)(F)CC3)nc2cc1OCCCN1CCCC1` [UNC0642] yielded a drug sensitivity score [22] of 7.71.
